Experimental data taken from ChEMBL document CHEMBL1201862, “PubChem BioAssay data set” (2004).
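1) Cells in 96-well plates. 2) Compound, 48 h, 5 concentrations. 3) Linear interpolation between surrounding doses. 4) Unreached endpoint = highest concentration. The concentration for 50% growth inhibition is given as GI50.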 Active and inactive are the calls of the source. No stated cut-off is given here; in the data, active = GI50 up to about 1.1 µM and inactive = higher.

Key:
Assay in all cases: DTP human tumour cell line panel, 48 h
[1] = system: DU-145
[2] = system: U-251
[3] = system: SW-620
[4] = system: SR
[5] = system: A549
[6] = system: SF-295
[7] = system: RPMI-8226
[8] = system: SK-MEL-5
[9] = system: KM12
[10] = system: Malme-3M
[11] = system: OVCAR-8
[12] = system: SF-539
[13] = system: CCRF-CEM
[14] = system: M14
[15] = system: NCI-H460
[16] = system: SNB-19
[17] = system: OVCAR-4
[18] = system: MDA-N
[19] = system: UACC-257
[20] = system: HOP-92

SMILES	GI50 [1]	GI50 [2]	GI50 [3]	GI50 [4]	GI50 [5]	GI50 [6]	GI50 [7]	GI50 [8]	GI50 [9]	GI50 [10]	GI50 [11]	GI50 [12]	GI50 [13]	GI50 [14]	GI50 [15]	GI50 [16]	GI50 [17]	GI50 [18]	GI50 [19]	GI50 [20]
C=C1CC[C@@H]2[C@](C)(COC(=O)CCC(=O)OC)CCC[C@@]2(C)[C@@H]1CCC1=CC(=O)OC1	71.4 µM (inactive)	> 100 µM (inactive)	46.5 µM (inactive)	21.5 µM (inactive)	> 100 µM (inactive)	> 100 µM (inactive)	16.1 µM (inactive)	30.5 µM (inactive)	43.6 µM (inactive)	> 100 µM (inactive)	63 µM (inactive)	> 100 µM (inactive)	28.2 µM (inactive)	> 100 µM (inactive)	> 100 µM (inactive)	> 100 µM (inactive)	> 100 µM (inactive)	56 µM (inactive)	> 100 µM (inactive)	–
C=CCN(c1cc(OC)c2c(c1[N+](=O)[O-])C(C)(SC)C(=O)N2)S(C)(=O)=O (centres undefined)	> 100 µM (inactive)	> 100 µM (inactive)	> 100 µM (inactive)	31.8 µM (inactive)	> 100 µM (inactive)	77.1 µM (inactive)	94 µM (inactive)	> 100 µM (inactive)	> 100 µM (inactive)	97.5 µM (inactive)	> 100 µM (inactive)	> 100 µM (inactive)	–	–	> 100 µM (inactive)	96.6 µM (inactive)	47.8 µM (inactive)	> 100 µM (inactive)	> 100 µM (inactive)	32.5 µM (inactive)
O=C1Nc2ccccc2/C1=C\c1c(Cl)[nH]c2ccccc12	3.35 µM (inactive)	0.518 µM (active)	0.516 µM (active)	0.292 µM (active)	1.23 µM (inactive)	0.287 µM (active)	0.589 µM (active)	0.414 µM (active)	0.397 µM (active)	0.631 µM (active)	2.42 µM (inactive)	0.374 µM (active)	0.358 µM (active)	0.873 µM (active)	0.597 µM (active)	0.764 µM (active)	–	0.24 µM (active)	1.59 µM (inactive)	0.48 µM (active)
CC12CC(c3ccccc3O1)C(C(=O)Nc1cccc(F)c1)C(=O)N2 (centres undefined)	> 100 µM (inactive)	> 100 µM (inactive)	84.9 µM (inactive)	38.7 µM (inactive)	52.1 µM (inactive)	64 µM (inactive)	40.7 µM (inactive)	22.8 µM (inactive)	49.7 µM (inactive)	> 100 µM (inactive)	24.4 µM (inactive)	> 100 µM (inactive)	26.3 µM (inactive)	90.4 µM (inactive)	47.2 µM (inactive)	> 100 µM (inactive)	30.1 µM (inactive)	54 µM (inactive)	40.2 µM (inactive)	–
Cc1ccc(/C=C2\CCS(=O)(=O)c3ccccc3C2=O)cc1	14.2 µM (inactive)	14 µM (inactive)	18.1 µM (inactive)	10.6 µM (inactive)	35.6 µM (inactive)	19.2 µM (inactive)	31.4 µM (inactive)	–	15.5 µM (inactive)	–	13.9 µM (inactive)	12.7 µM (inactive)	13.8 µM (inactive)	26.1 µM (inactive)	14.8 µM (inactive)	16.1 µM (inactive)	15 µM (inactive)	28 µM (inactive)	18.5 µM (inactive)	15 µM (inactive)
COc1ccc(NC(=O)CC(=O)N2N=C(c3ccccc3)C(/N=N/c3ccc(S(=O)(=O)CCOS(=O)(=O)O)cc3)C2=O)cc1 (centres undefined)	> 100 µM (inactive)	> 100 µM (inactive)	> 100 µM (inactive)	> 100 µM (inactive)	> 100 µM (inactive)	> 100 µM (inactive)	> 100 µM (inactive)	> 100 µM (inactive)	> 100 µM (inactive)	> 100 µM (inactive)	> 100 µM (inactive)	> 100 µM (inactive)	> 100 µM (inactive)	> 100 µM (inactive)	> 100 µM (inactive)	> 100 µM (inactive)	–	> 100 µM (inactive)	> 100 µM (inactive)	> 100 µM (inactive)
CN(C(=O)Cc1ccc(Cl)c(Cl)c1)[C@@H]1CCCC[C@H]1[N+]1(C)CC=CC1	> 100 µM (inactive)	> 100 µM (inactive)	> 100 µM (inactive)	> 100 µM (inactive)	> 100 µM (inactive)	> 100 µM (inactive)	> 100 µM (inactive)	> 100 µM (inactive)	> 100 µM (inactive)	> 100 µM (inactive)	> 100 µM (inactive)	–	–	> 100 µM (inactive)	–	> 100 µM (inactive)	> 100 µM (inactive)	> 100 µM (inactive)	> 100 µM (inactive)	> 100 µM (inactive)
